From PubChem BioAssay (NCI) come the findings set out here.

Test in all cases: growth of human tumour cells (NCI), 48 h
The subject of assay [1] is LOX IMVI melanoma.
Assay [2] deals with HOP-62 NSCLC.
Assay [3] has as its system OVCAR-8 ovarian.
Assay [4] relates to NCI/ADR-RES ovarian.
The subject of assay [5] is UACC-257 melanoma.
Assay [6] relates to SK-MEL-2 melanoma.
Assay [7] has as its system KM12 colon.
Assay [8] relates to HS 578T breast.
Assay [9] relates to MCF7 breast.
The test system of assay [10] is HOP-92 NSCLC.
The test system of assay [11] is NCI-H23 lung.

The structures appear in SMILES notation.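 Values below derive from 48-hour exposures of cells grown in 96-well plates, with endpoints linearly interpolated between the two concentrations bracketing the appropriate inhibition level. The concentration for 50% growth inhibition is given as GI50. TGI: concentration producing complete growth inhibition.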

Consider `COC(=O)c1c(C)cccc1C1CN=NC12Cc1cccc(C)c1C2=O` (stereo not drawn), for which the TGI in assay [1] is 32.7 µM; in assay [2], greater than 100 µM; in assay [3], greater than 100 µM; in assay [4], greater than 100 µM; in assay [5], 57.7 µM; in assay [6], 94.7 µM. In addition, the TGI was greater than 100 µM in [7]; greater than 100 µM in assay [8]; greater than 100 µM in assay [9]; 47.6 µM in assay [10]; greater than 100 µM in assay [11].

Turning to `Cc1cc(C)c(C#N)c(SC(=S)NC(=O)c2ccccc2)n1`, the TGI in [2], in [4], in assay [5], in assay [6], in assay [7] and in assay [8] was greater than 100 µM throughout. Also, the TGI in [9], in [10] and in [11] was greater than 100 µM throughout.

Turning to `C=C(C)C(=O)O[C@H]1CC2(CO)O[C@@H]2CC/C(COC(C)=O)=C/C2OC(=O)C(=C)[C@@H]21` (stereo partly drawn), the TGI in assay [1] is greater than 60 µM; in [2] it was greater than 100 µM; in [3], 49.8 µM; in [4] it was greater than 100 µM; in assay [5], 43.1 µM; in assay [6] it was greater than 100 µM. Moreover, the TGI is greater than 100 µM in assay [7]; greater than 100 µM in [8]; 57.7 µM in [9]; 51.9 µM in assay [10]; greater than 100 µM in assay [11].

Turning to `COCCN(C(=O)c1ccccc1)C1CCC(=O)c2[nH]c3ccccc3c21` (stereo not drawn), the TGI in assay [1] was greater than 39.4 µM; in assay [2], 11.5 µM; in assay [3], 21.3 µM; in [4] it was 53.6 µM; in assay [5], greater than 66.7 µM; in assay [6], 17.8 µM. Also, the TGI in assay [7] was 21.9 µM; in [8] it was greater than 75.5 µM; in [9] it was 19.2 µM; in assay [10], 25 µM; in assay [11] it was 36.9 µM.

With `CC(=O)OCC1(CNc2nc(N)ncc2C#N)CC(CCc2ccccc2)C1` (stereo not drawn), the TGI in assay [1], in assay [2], in [3], in [4], in assay [5] and in [6] was greater than 100 µM in each case. The TGI is greater than 100 µM in assay [7]; greater than 100 µM in assay [8]; greater than 100 µM in assay [9]; 49.9 µM in [10]; greater than 100 µM in assay [11].

In the case of `CN1CCCC(OC(=O)c2cc3cc(CCl)ccc3oc2=O)C1` (stereo not drawn), the TGI in assay [1] was 34.3 µM; in assay [2], 67.7 µM; in assay [3], greater than 100 µM; in [4], 87 µM; in assay [5] it was 40.2 µM; in assay [6], 33.9 µM. The TGI in assay [7] was 68.3 µM; in assay [8], 56.6 µM; in assay [9], 50.1 µM; in assay [10] it was 30.5 µM; in [11] it was 45.1 µM.

In the case of `Cc1cn([C@@H]2C[C@](C)(CO)N(C)O2)c(=O)[nH]c1=O`, the TGI in assay [1], in [2], in assay [3], in assay [4], in [5] and in assay [6] was greater than 100 µM in each case. Besides, the TGI in assay [7], in assay [8], in assay [9], in assay [10] and in [11] was greater than 100 µM each time.

Turning to `C#Cc1cccc(Nc2ncnc3cc(OCCOC)c(OCCOC)cc23)c1`, the TGI was greater than 100 µM in assay [1]; 59.7 µM in assay [2]; greater than 93.3 µM in assay [3]; greater than 100 µM in [4]; greater than 100 µM in [5]; 50.6 µM in assay [6]. Also, the TGI in assay [7] is greater than 100 µM; in [8], 86.3 µM; in [9], greater than 100 µM; in assay [10], 60.2 µM; in assay [11], greater than 100 µM. In addition, the GI50 in assay [9] is greater than 100 µM.

With `Cc1sc2nc3n(sc4nc5sc(C)c(C)c5c(=O)n43)c(=O)c2c1C`, the TGI in assay [1], in assay [3], in assay [4], in [5], in [6] and in [7] was greater than 100 µM each time. In addition, the TGI in [8], in assay [9], in assay [10] and in assay [11] was greater than 100 µM throughout.

`O=C(O)Cn1ncn(NC(=O)Cc2ccccc2)c1=S`: the TGI in [1], in [2], in [3], in assay [4], in assay [5] and in assay [7] was greater than 10 µM each time. Further, the TGI in assay [8], in assay [9], in assay [10] and in assay [11] was greater than 10 µM each time.

For `Cc1c(Cl)c(=O)oc2cc(OCC(O)COC(C)C)ccc12` (stereo not drawn), the TGI was greater than 100 µM in assay [1]; greater than 100 µM in [2]; greater than 100 µM in assay [3]; greater than 100 µM in assay [4]; greater than 100 µM in assay [5]; 58.2 µM in assay [6]. Moreover, the TGI in [7] is greater than 100 µM; in assay [8] it was greater than 100 µM; in [9] it was 65.3 µM; in [10], greater than 100 µM; in assay [11], greater than 100 µM.

For the compound `COC(C[C@H]1CCCC[C@]1(O)/C(=C\CO[Si](C(C)C)(C(C)C)C(C)C)Sc1ccccc1)OC`, the TGI was 37.5 µM in assay [1]; greater than 100 µM in assay [2]; greater than 100 µM in [3]; greater than 100 µM in assay [4]; greater than 100 µM in assay [5]; 49.9 µM in assay [6]. Also, the TGI was greater than 100 µM in assay [7]; greater than 100 µM in assay [8]; greater than 100 µM in assay [9]; 68.8 µM in assay [10]; greater than 100 µM in assay [11].

For `COC(=O)NC(Nc1ccc(C)cc1)(C(F)(F)F)C(F)(F)F`, the TGI in assay [1], in assay [2], in assay [3], in [4], in assay [5] and in assay [6] was greater than 100 µM in each case. In addition, the TGI in [7], in assay [8], in [9], in assay [10] and in assay [11] was greater than 100 µM throughout.

For `C/C=C\C(CC(=O)NCCc1c[nH]c2ccccc12)CC(=O)OC` (stereo not drawn), the TGI in [2], in [3], in [4], in assay [5], in [6] and in [7] was greater than 100 µM each time. Besides, the TGI in [8], in assay [9], in [10] and in assay [11] was greater than 100 µM each time.

As for `CCCCN(CCCC)C1=Nc2ccccc2-n2c(nnc2C(=O)OCC)C1`, the TGI is greater than 100 µM in assay [1]; greater than 100 µM in assay [2]; greater than 100 µM in [3]; greater than 100 µM in assay [4]; 90 µM in [5]; greater than 100 µM in assay [7]. The TGI was greater than 100 µM in assay [8], greater than 100 µM in [9], 81.5 µM in assay [10] and greater than 100 µM in assay [11].

Take `CN(c1ccc(Cl)cc1)S(=O)(=O)c1ccccc1`: the TGI in assay [1], in assay [2], in assay [3], in assay [4], in [5] and in [6] was greater than 100 µM each time. Moreover, the TGI in assay [7], in assay [8], in assay [9] and in assay [11] was greater than 100 µM each time.

For `COc1c(-c2ccc(F)cc2)oc2cc(O)cc(O)c2c1=O`, the TGI in [1] was 54.5 µM; in [2] it was 38.4 µM; in assay [3], 69.4 µM; in [4] it was 63.5 µM; in assay [6], 64.3 µM; in assay [7], 98.4 µM. Also, the TGI in assay [8] was greater than 100 µM; in [9], greater than 100 µM; in assay [10], greater than 100 µM; in assay [11] it was 78.2 µM.

As for `O=C(O)c1cc(Nc2c(O)c3c(c(O)c2Cl)C(=O)C=CC3=O)ccc1O`, the TGI in [1], in assay [2], in assay [3], in assay [4], in assay [5] and in assay [7] was greater than 10 µM in each case. For the same compound, the TGI in assay [8], in assay [9], in assay [10] and in assay [11] was greater than 10 µM in each case.

Consider `CC(C)(C)C(=O)O[C@H]1C=C[C@@H](O)[C@@H]2[C@H]1[C@@H]1C=C[C@H]2C1`, for which the TGI is greater than 100 µM in assay [1]; greater than 100 µM in [3]; 96.1 µM in assay [4]; 27.1 µM in [5]; greater than 100 µM in assay [6]; 12.4 µM in [7]. In addition, the TGI in [8] is greater than 100 µM; in assay [9], 39.9 µM; in [10], greater than 100 µM; in assay [11], 48 µM.

Turning to `O=C1NC(=S)N/C1=C\c1ccc(Sc2ccccc2C(=O)O)s1`, the TGI in assay [1], in [2], in assay [3], in assay [4], in assay [5] and in assay [6] was greater than 100 µM in each case. The TGI in [7], in [8], in assay [9] and in assay [11] was greater than 100 µM throughout.

For the compound `NC(=O)CC[C@H]1C(=O)N=C(N)N1C(=O)OCc1ccccc1`, the TGI in assay [1], in assay [2], in [3], in [4], in assay [5] and in assay [6] was greater than 100 µM throughout. Further, the TGI in assay [7], in assay [8], in [9] and in assay [11] was greater than 100 µM each time.

Regarding `O=c1[nH]nc(N/N=C\c2ccc(Cl)cc2)c2ccccc12`, the TGI is 54.8 µM in assay [3]; 39 µM in assay [4]; 49.3 µM in [5]; 37 µM in assay [6]; 52.3 µM in [7]; 62.7 µM in assay [8]. The TGI in assay [9] was determined as 64 µM; in assay [10], 34.5 µM; in assay [11], 40.1 µM.

With `N#C[C@H]1C(=O)C(c2nc3ccccc3[nH]2)S[C@H]1c1ccccc1` (stereo partly drawn), the TGI in assay [1], in [3], in [4], in assay [5], in assay [7] and in assay [8] was greater than 100 µM each time. In addition, the figures for the TGI in assay [9], in [10] and in [11] were greater than 100 µM, 67.3 µM and 76.1 µM, respectively.

On to `Cc1ccc(C(=O)NN=C(/N=N/c2cccc(C)c2)c2ccc(N(C)C)cc2)cc1`, for which the TGI in assay [1], in [3], in assay [4], in assay [5], in assay [6] and in assay [7] was greater than 100 µM each time. Also, the TGI in assay [8], in assay [9], in assay [10] and in assay [11] was greater than 100 µM in each case.

On to `CCOc1ccccc1N=NC1C(=O)N(C(=O)CC(=O)Nc2ccccc2OC)N=C1C` (stereo not drawn), for which the TGI in assay [1] is greater than 100 µM; in assay [2], 39.4 µM; in assay [3], greater than 100 µM; in assay [4], greater than 100 µM; in assay [6], greater than 100 µM; in assay [7], greater than 100 µM. For the same compound, the TGI in assay [8] is 12.2 µM; in [9], greater than 100 µM; in assay [10], 56.8 µM; in [11] it was greater than 100 µM.

For the compound `COc1ccc(/C=N/N=C(\N)NO)c(OC)c1OC`, the TGI in assay [1] was greater than 100 µM; in [2] it was greater than 100 µM; in assay [3], 41.9 µM; in assay [4], 35.4 µM; in assay [6], greater than 100 µM; in assay [7], 52.9 µM. For the same compound, the TGI in assay [8] was greater than 100 µM; in [9], greater than 100 µM; in assay [10] it was 71.2 µM; in assay [11], greater than 100 µM.
